Results from the NIST ThermoML archive (doi:10.1016/j.jct.2008.10.007).

Experiments:
[1] = xn = mol fraction of the nth substance listed; conditions: 298.15 K, 101 kPa, Liquid, Vibrating tube method
[2] = excess molar enthalpy (molar enthalpy of mixing); xn = mol fraction of the nth substance listed; conditions: 298.15 K, 101 kPa, Liquid, Calvet calorimetry

CCCOC(=O)CCC [propyl butanoate] + ClCCCCCl
Conditions | excess molar enthalpy [kcal/mol] | mass density [kg/m3]
[1], x1 = 0.1349 | – | 1087.88
[1], x1 = 0.1841 | – | 1072.12
[1], x1 = 0.233 | – | 1056.97
[1], x1 = 0.2856 | – | 1041.17
[1], x1 = 0.3405 | – | 1025.23
[1], x1 = 0.3956 | – | 1009.76
[1], x1 = 0.5129 | – | 978.41
[1], x1 = 0.6385 | – | 947.12
[1], x1 = 0.7731 | – | 915.88
[1], x1 = 0.8454 | – | 900
[1], x1 = 0.918 | – | 884.64
[1], x1 = 1 | – | 867.9
[2], x1 = 0.0503 | -0.00454 | –
[2], x1 = 0.1217 | -0.0117 | –
[2], x1 = 0.2009 | -0.0203 | –
[2], x1 = 0.2826 | -0.0306 | –
[2], x1 = 0.3602 | -0.0416 | –
[2], x1 = 0.4315 | -0.0516 | –
[2], x1 = 0.5579 | -0.0629 | –
[2], x1 = 0.6248 | -0.0612 | –
[2], x1 = 0.699 | -0.0559 | –
[2], x1 = 0.7829 | -0.0457 | –
[2], x1 = 0.8689 | -0.0301 | –
[2], x1 = 0.9389 | -0.0158 | –

CCCOC(=O)CCC [propyl butanoate] + ClCCCCl
Conditions | excess molar enthalpy [kcal/mol] | mass density [kg/m3]
[1], x1 = 0.0366 | – | 1161.49
[1], x1 = 0.0766 | – | 1143.1
[1], x1 = 0.1186 | – | 1124.61
[1], x1 = 0.1603 | – | 1107.03
[1], x1 = 0.2067 | – | 1088.41
[1], x1 = 0.2552 | – | 1069.83
[1], x1 = 0.3066 | – | 1051.21
[1], x1 = 0.3595 | – | 1032.94
[1], x1 = 0.4152 | – | 1014.72
[1], x1 = 0.5357 | – | 978.32
[1], x1 = 0.5999 | – | 960.48
[1], x1 = 0.6691 | – | 942.33
[1], x1 = 0.7439 | – | 923.8
[1], x1 = 0.8228 | – | 905.44
[1], x1 = 0.9064 | – | 887.12
[1], x1 = 1 | – | 867.9
[2], x1 = 0.0386 | -0.00478 | –
[2], x1 = 0.0938 | -0.0127 | –
[2], x1 = 0.159 | -0.0229 | –
[2], x1 = 0.2273 | -0.0375 | –
[2], x1 = 0.2973 | -0.0507 | –
[2], x1 = 0.3649 | -0.0626 | –
[2], x1 = 0.4253 | -0.0712 | –
[2], x1 = 0.5121 | -0.081 | –
[2], x1 = 0.5732 | -0.0798 | –
[2], x1 = 0.6582 | -0.0753 | –
[2], x1 = 0.748 | -0.0652 | –
[2], x1 = 0.8421 | -0.0464 | –
[2], x1 = 0.9299 | -0.0234 | –

CCCOC(=O)CCC [propyl butanoate] + ClCCCl
Conditions | excess molar enthalpy [kcal/mol] | mass density [kg/m3]
[1], x1 = 0.0329 | – | 1222.22
[1], x1 = 0.065 | – | 1200.67
[1], x1 = 0.1029 | – | 1176.79
[1], x1 = 0.1385 | – | 1155.7
[1], x1 = 0.1815 | – | 1132.09
[1], x1 = 0.2225 | – | 1110.75
[1], x1 = 0.2703 | – | 1087.77
[1], x1 = 0.3191 | – | 1065.93
[1], x1 = 0.3743 | – | 1043.05
[1], x1 = 0.4285 | – | 1022.26
[1], x1 = 0.4904 | – | 1000.19
[1], x1 = 0.556 | – | 978.67
[1], x1 = 0.628 | – | 956.91
[1], x1 = 0.7087 | – | 934.51
[1], x1 = 0.7989 | – | 911.8
[1], x1 = 0.8938 | – | 890.06
[1], x1 = 1 | – | 867.9
[2], x1 = 0.0365 | -0.00837 | –
[2], x1 = 0.0999 | -0.0229 | –
[2], x1 = 0.1556 | -0.0363 | –
[2], x1 = 0.2176 | -0.0526 | –
[2], x1 = 0.281 | -0.0684 | –
[2], x1 = 0.343 | -0.0851 | –
[2], x1 = 0.3848 | -0.0951 | –
[2], x1 = 0.4055 | -0.098 | –
[2], x1 = 0.4534 | -0.106 | –
[2], x1 = 0.5266 | -0.109 | –
[2], x1 = 0.6369 | -0.0997 | –
[2], x1 = 0.7616 | -0.0746 | –
[2], x1 = 0.8961 | -0.0399 | –

CCCOC(C)=O [propyl ethanoate] + ClCCCCCCCl
Conditions | mass density [kg/m3]
[1], x1 = 1 | 882.08

CCCOC(C)=O [propyl ethanoate] + ClCCCCCCl
Conditions | mass density [kg/m3]
[1], x1 = 1 | 882.08

CCCOC(C)=O [propyl ethanoate] + ClCCCCCl
Conditions | mass density [kg/m3]
[1], x1 = 1 | 882.08

CCCOC(C)=O [propyl ethanoate] + ClCCCCl
Conditions | mass density [kg/m3]
[1], x1 = 1 | 882.08

CCCOC(C)=O [propyl ethanoate] + ClCCCl
Conditions | mass density [kg/m3]
[1], x1 = 1 | 882.08

CCCOC=O [propyl methanoate] + ClCCCCCCCl
Conditions | excess molar enthalpy [kcal/mol] | mass density [kg/m3]
[1], x1 = 0.0861 | – | 1054
[1], x1 = 0.1676 | – | 1044.21
[1], x1 = 0.2459 | – | 1034.25
[1], x1 = 0.3157 | – | 1024.9
[1], x1 = 0.3867 | – | 1014.88
[1], x1 = 0.4515 | – | 1005.28
[1], x1 = 0.5124 | – | 995.82
[1], x1 = 0.6287 | – | 976.43
[1], x1 = 0.6818 | – | 966.95
[1], x1 = 0.7826 | – | 947.72
[1], x1 = 0.8311 | – | 937.83
[1], x1 = 0.8777 | – | 927.92
[1], x1 = 0.9609 | – | 909.1
[1], x1 = 1 | – | 899.81
[2], x1 = 0.0891 | 0.021 | –
[2], x1 = 0.2066 | 0.0373 | –
[2], x1 = 0.3241 | 0.049 | –
[2], x1 = 0.4164 | 0.0523 | –
[2], x1 = 0.4832 | 0.0504 | –
[2], x1 = 0.5353 | 0.0473 | –
[2], x1 = 0.5847 | 0.0433 | –
[2], x1 = 0.6323 | 0.039 | –
[2], x1 = 0.6975 | 0.0323 | –
[2], x1 = 0.7658 | 0.0249 | –
[2], x1 = 0.8389 | 0.0165 | –
[2], x1 = 0.9059 | 0.00908 | –
[2], x1 = 0.9621 | 0.00382 | –

CCCOC=O [propyl methanoate] + ClCCCCCCl
Conditions | mass density [kg/m3]
[1], x1 = 1 | 899.81

CCCOC(=O)CC [propyl propanoate] + ClCCCCCCCl
Conditions | mass density [kg/m3]
[1], x1 = 1 | 875.61

CCCOC(=O)CC [propyl propanoate] + ClCCCCCCl
Conditions | mass density [kg/m3]
[1], x1 = 1 | 875.61

CCCOC(=O)CC [propyl propanoate] + ClCCCCCl
Conditions | mass density [kg/m3]
[1], x1 = 1 | 875.61

CCCOC(=O)CC [propyl propanoate] + ClCCCCl
Conditions | mass density [kg/m3]
[1], x1 = 1 | 875.61
